Test results from EP0606463B1, “NEUROMEDIN B RECEPTOR ANTAGONISTS” (The Administrators of The Tulane Educational Fund, priority 1992, dated 1994).
Where a SMILES comes first, the peptide text is derived from it. Bridges are numbered along the chain shown (N, C = ends). [ ]: non-standard residue; d: D form. 2Nal = N[C@@H](Cc1ccc2ccccc2c1)C(=O)O; d2Nal = N[C@H](Cc1ccc2ccccc2c1)C(=O)O

How the values were obtained:
histamine H1 = biological target: T1, histamine H1 (Cavia porcellus, UniProt P31389); test: histamine H1 membrane receptor assay; assay type: binding, guinea pig; settings: at 1 µM
T1 construct: guinea pig cerebral (N1, histamine H1, and sigma opioid membrane receptor assays); from tissue; host or cells: guinea pig cerebral membranes

[1] = test system: endothelin-1-simulated increases in [^3H]IP; test: Endothelin-1-stimulated [3H]IP in C-6 glioblastoma cells; assay type: cell-based, rat; settings: for effect on endothelin-1-simulated increases in [^3H]IP in C-6 cells: Table 3
Procedure: Total phosphoinositides in C-6 cells and in NMB-R transfected cells were determined as described previously, with minor modifications [Benya, R. V. et al. Mol. Pharmacol. 42:1058 (1992); and Wang, L-H. et al. Biochem. J. 286:641 (1992)]. Cells were grown to confluence in 24-well plates and then loaded with 100 µCi/ml myo-[2-^3H]inositol in Dulbecco's modified essential medium with 2% fetal bovine serum at 37°C for 48 hrs. Cells were washed and incubated in phosphoinositide buffer (standard buffer additionally containing 10 mM LiCl, 20 mM HEPES, 2 mM CaCl2, 2% BSA, and 1.2 mM MgSO4) for 15 min and then for 60 min at 37°C with agonists at various concentrations or with 3 nM NMB (a half-maximal effective concentration) and possible antagonists at different concentrations. Reactions were halted using ice-cold 1% HCl in methanol, and the inositol phosphates (IP) were isolated as described previously [Bologna, M. et al. Cancer 63:1714 (1989); and Endo, T. et al. J. Endocrinol. 131:313 (1991)]. Briefly, after loading of the anion exchange column, free [^3H]glycerophosphorylinositol was removed by washing with 5 mM disodium tetraborate in 60 mM sodium formate. Total [^3H]inositol phosphates were then eluted using 100 mM formic acid in 1.0 M ammonium formate as described previously [Benya, R. V. et al. Mol. Pharmacol. 42:1058 (1992); and Wang, L-H. et al. Biochem. J. 286:641 (1992)].

[2] = biological target: T2, N-methyl D-aspartate receptors (Rattus norvegicus, UniProt P35439); test: N-methyl-D-aspartate membrane receptor assay; assay type: binding; settings: at 1 µM
T2 construct: from tissue; host or cells: rat cerebral cortex membranes

[3] = biological target: T3, NMB receptors on rat olfactory bulb membranes (Rattus norvegicus, UniProt P24053); test: NMB membrane receptor assay (rat olfactory bulb membranes); assay type: binding
T3 construct: Membranes were prepared from rat olfactory bulb (NMB membrane receptor assay); from tissue; host or cells: rat olfactory bulb membranes
T3 sequence (P24053 1-390): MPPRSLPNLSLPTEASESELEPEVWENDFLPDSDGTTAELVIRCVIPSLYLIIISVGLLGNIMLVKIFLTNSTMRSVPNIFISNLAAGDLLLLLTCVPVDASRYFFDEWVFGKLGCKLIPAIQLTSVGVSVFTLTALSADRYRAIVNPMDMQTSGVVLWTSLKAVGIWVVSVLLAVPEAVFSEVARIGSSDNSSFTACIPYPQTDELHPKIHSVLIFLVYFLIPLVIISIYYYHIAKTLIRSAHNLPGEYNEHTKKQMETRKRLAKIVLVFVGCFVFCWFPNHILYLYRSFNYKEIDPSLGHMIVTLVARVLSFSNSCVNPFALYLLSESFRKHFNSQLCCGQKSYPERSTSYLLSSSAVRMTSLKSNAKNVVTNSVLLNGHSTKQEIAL

α1- adrenergic = test: alpha1-adrenergic membrane receptor assay; assay type: binding, rat; settings: at 1 µM
benzodiazepine-neural = test: Neural benzodiazepine membrane receptor assay; assay type: binding, rat; settings: at 1 µM
adenosine1 = biological target: T4, adenosine1 (Rattus norvegicus, UniProt P25099); test: Adenosine membrane receptor assay; assay type: binding; settings: at 1 µM
T4 construct: rat cerebral cortex (CCKB, PYY, neurotensin, ∝1-adrenergic, ∝2-adrenergic, muscarinic cholinergic, neural benzodiazepine, peripheral benzodiazepine, adenosine); from tissue; host or cells: rat cerebral cortex membranes

bradykinin1 = test: Bradykinin membrane receptor assay; assay type: binding; settings: at 1 µM
rat NMB receptor = biological target: T5, rat NMB receptor (Rattus norvegicus, UniProt P24053); test: Binding of 125I-[D-Tyr0]NMB to NMB-R transfected BALB 3T3 cells; settings: for fold greater affinity for the NMB than the GRP receptors: NMB-R transfected cells versus GRP receptors on rat pancreatic acini
T5 construct: a full length NMB-preferring bombesin receptor clone generated from rat esophagus; expressed in transfected cells; host or cells: BALB 3T3 cells
T5 sequence (P24053 1-390): T3 sequence (P24053 1-390)

sigma opioid receptor = biological target: T6, sigma opioid receptor (Cavia porcellus, UniProt Q60492); test: sigma opioid membrane receptor assay; assay type: binding, guinea pig; settings: at 1 µM
T6 construct: guinea pig cerebral (N1, histamine H1, and sigma opioid membrane receptor assays); from tissue; host or cells: guinea pig cerebral membranes

GRP Receptor = biological target: T7, GRP Receptor (Rattus norvegicus, UniProt P52500); test: Amylase release from rat pancreatic acini; assay type: cell-based
T7 construct: from tissue; host or cells: dispersed pancreatic acini

β1-adrenergic = biological target: T8, β1-adrenergic (Homo sapiens, UniProt P08588); test: beta1-adrenergic membrane receptor assay; assay type: binding; settings: at 1 µM
T8 construct: receptors on plasma membranes on various tissues determined as described in METHODS; from tissue

muscarinic cholinergic = test: Muscarinic cholinergic membrane receptor assay; assay type: binding, rat; settings: at 1 µM
NMB Receptor = biological target: T9, NMB Receptor (Rattus norvegicus, UniProt P24053); test: [3H]inositol phosphates (IP) in NMB-R transfected cells; assay type: cell-based
T9 construct: a full length NMB-preferring bombesin receptor clone generated from rat esophagus; expressed in transfected cells; host or cells: BALB 3T3 cells
T9 sequence (P24053 1-390): T3 sequence (P24053 1-390)
Method in brief: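 BALB 3T3 cells stably expressing rat NMB receptor, labelled 48 h with myo-[2-3H]inositol, then 60 min at 37°C in LiCl-containing buffer with agonists, or with 3 nM NMB plus antagonists. Total [3H]IP isolated by anion-exchange chromatography.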

T7 sequence (P52500 whole entry): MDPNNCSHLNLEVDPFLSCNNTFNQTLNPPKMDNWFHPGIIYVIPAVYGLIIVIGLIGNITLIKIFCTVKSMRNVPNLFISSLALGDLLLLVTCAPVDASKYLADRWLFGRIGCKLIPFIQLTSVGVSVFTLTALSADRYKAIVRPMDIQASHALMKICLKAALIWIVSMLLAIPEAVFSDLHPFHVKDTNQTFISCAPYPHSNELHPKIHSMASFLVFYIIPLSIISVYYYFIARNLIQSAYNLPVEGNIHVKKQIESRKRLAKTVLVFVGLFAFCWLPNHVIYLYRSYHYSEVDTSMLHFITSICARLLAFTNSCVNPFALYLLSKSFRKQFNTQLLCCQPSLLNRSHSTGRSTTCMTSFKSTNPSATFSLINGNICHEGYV
T8 sequence (P08588 whole entry): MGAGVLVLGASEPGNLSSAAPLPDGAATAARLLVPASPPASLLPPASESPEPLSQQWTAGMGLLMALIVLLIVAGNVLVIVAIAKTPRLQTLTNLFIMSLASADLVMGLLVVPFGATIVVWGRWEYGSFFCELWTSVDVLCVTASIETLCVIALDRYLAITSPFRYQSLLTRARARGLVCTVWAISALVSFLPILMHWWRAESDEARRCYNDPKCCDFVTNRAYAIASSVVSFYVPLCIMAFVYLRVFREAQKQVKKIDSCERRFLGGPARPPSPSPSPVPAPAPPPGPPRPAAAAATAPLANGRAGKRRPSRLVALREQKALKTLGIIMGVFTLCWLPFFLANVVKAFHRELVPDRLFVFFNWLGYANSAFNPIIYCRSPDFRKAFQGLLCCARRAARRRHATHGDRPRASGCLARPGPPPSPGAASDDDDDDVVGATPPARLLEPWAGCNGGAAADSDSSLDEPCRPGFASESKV
T4 sequence (P25099 whole entry): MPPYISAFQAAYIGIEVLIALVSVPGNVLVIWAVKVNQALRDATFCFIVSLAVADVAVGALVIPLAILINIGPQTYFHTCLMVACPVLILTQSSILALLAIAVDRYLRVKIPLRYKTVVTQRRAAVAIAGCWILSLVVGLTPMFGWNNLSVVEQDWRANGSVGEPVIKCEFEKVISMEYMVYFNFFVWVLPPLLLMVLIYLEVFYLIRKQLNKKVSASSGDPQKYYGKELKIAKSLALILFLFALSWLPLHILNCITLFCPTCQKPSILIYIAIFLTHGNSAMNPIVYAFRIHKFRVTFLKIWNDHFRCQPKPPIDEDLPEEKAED
T6 sequence (Q60492 whole entry): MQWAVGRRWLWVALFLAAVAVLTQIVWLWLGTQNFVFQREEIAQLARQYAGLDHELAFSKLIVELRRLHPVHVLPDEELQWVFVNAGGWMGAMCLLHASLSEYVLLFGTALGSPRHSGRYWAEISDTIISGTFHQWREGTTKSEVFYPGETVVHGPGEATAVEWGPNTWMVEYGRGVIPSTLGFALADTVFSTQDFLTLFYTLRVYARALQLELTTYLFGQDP
T1 sequence (P31389 whole entry): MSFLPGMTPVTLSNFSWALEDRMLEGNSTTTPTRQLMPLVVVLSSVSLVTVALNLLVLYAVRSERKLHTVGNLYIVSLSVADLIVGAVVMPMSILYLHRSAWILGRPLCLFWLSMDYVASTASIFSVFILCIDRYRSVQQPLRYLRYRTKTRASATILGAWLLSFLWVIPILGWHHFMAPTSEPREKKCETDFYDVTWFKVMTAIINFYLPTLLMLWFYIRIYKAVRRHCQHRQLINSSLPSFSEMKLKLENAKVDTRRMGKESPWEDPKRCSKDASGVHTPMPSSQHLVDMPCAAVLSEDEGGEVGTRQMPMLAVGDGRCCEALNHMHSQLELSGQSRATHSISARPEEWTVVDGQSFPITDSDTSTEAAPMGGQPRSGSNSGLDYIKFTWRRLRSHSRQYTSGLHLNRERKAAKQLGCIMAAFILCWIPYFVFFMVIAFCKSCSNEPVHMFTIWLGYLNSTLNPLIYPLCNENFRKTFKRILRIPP

CC(C)[C@@H]1NC(=O)[C@H](CCCCN)NC(=O)[C@@H](Cc2c[nH]c3ccccc23)NC(=O)[C@H](Cc2ccc(O)cc2)NC(=O)[C@@H](NC(=O)[C@H](N)Cc2ccc3ccccc3c2)CSSC[C@@H](C(=O)N[C@@H](Cc2ccc3ccccc3c2)C(N)=O)NC1=O [Analog #1, D-Nal-Cys-Tyr-D-Trp-Lys-Val-Cys-Nal-NH2] (H-[d2Nal]CY[dW]KVC[2Nal]-NH2; disulfide 2-7; N-terminus assumed)
inhibition of binding to histamine H1 (histamine H1): did not inhibit binding
[^3H]IP, Peptide Added ET-1 (0.1 nM) ([1]; C-6 glioblastoma cells, analog 10 µM plus ET-1 0.1 nM): 10.9 ± 1.8 dpm x 10^3
effect on endothelin-1-simulated increases in [^3H]IP in C-6 cells [1]: had no effect
effect on endothelin-1-simulated increases in [^3H]IP in C-6 cells ([1]; listed as Cycle SS-octa): did not inhibit
inhibition of binding to N-methyl D-aspartate receptors [2]: did not inhibit binding
inhibition at 1 µM ([3]; at 1 µM, read-out: inhibition of binding to NMB receptors on rat olfactory bulb membranes): > 95%
fold greater affinity for NMB receptors than mu opioid receptors ([3]; rat olfactory bulb versus rat forebrain membranes (Table 4)): 10 fold
inhibition of binding to α1- adrenergic (α1- adrenergic): did not inhibit binding
inhibition of binding to benzodiazepine-neural (benzodiazepine-neural): did not inhibit binding
inhibition of binding to adenosine1 (adenosine1): did not inhibit binding
inhibition of binding to bradykinin1 (bradykinin1): did not inhibit binding
complete inhibition of binding of ^125I-[Tyr^0]NMB at (rat NMB receptor; NMB-R transfected cells): 3 µM
fold greater affinity for the NMB than the GRP receptors (rat NMB receptor): 84 fold
fold greater affinity for the NMB than the GRP receptors (rat NMB receptor; listed as cyclo SS-octa): 100 fold
detectible inhibition of binding of ^125I-[Tyr^0]NMB at (rat NMB receptor; NMB-R transfected cells, lowest concentration with detectable inhibition): 0.1 µM
inhibition of binding to sigma opioid (sigma opioid receptor): did not inhibit binding
Rat Pancreatic Acini Amylase Release Alone (10µM) (GRP Receptor; analog 10 µM alone, no-additive control 4 ± 1): 5 ± 1 % total
Rat Pancreatic Acini Amylase Release Plus Bn(0.3 nM) (GRP Receptor; analog 10 µM plus Bn 0.3 nM, Bn without analog 15 ± 1): 15 ± 2 % total
effect on Bn-stimulated amylase release (GRP Receptor; rat pancreatic acini, Bn 0.3 nM, peptide 10 µM): did not inhibit
inhibition of binding to β1-adrenergic (β1-adrenergic): did not inhibit binding
inhibition of binding to muscarinic cholinergic (muscarinic cholinergic): did not inhibit binding
regression slope of Schild plot (NMB Receptor; 1, 3 or 10 µM cyclo SS-octa on NMB dose-response curve): 1.1(+0.2)
complete inhibition of NMB-stimulated increases in [^3H]IP at (NMB Receptor; NMB-R transfected cells): 10 µM
detectible inhibition of NMB-stimulated increases in [^3H]IP at (NMB Receptor; NMB-R transfected cells): 0.3 µM
effect on NMB-stimulated increase in [^3H]IP (NMB Receptor; NMB-R transfected cells, 3 nM NMB, peptide 10 µM): completely inhibited
NMB-R Transfected Cells [^3H]IP Alone (10 µ M) (NMB Receptor; analog 10 µM alone, no-additive control 13 ± 3): 12 ± 2 dpm x 10^3
NMB-R Transfected Cells [^3H]IP Plus NMB (3 nM) (NMB Receptor; analog 10 µM plus NMB 3 nM, NMB without analog 186 ± 58): 8 ± 4 dpm x 10^3
Kd (NMB Receptor; rightward shift of NMB dose-response curve, NMB-R transfected cells, read-out: affinity for the NMB receptor from Schild plot): 231 ± 43 nM
